One test addresses LRRK2(G2019S mutation, GST-LRRK2(amino acids 970-2527)) (Homo sapiens (Human), UniProt Q5S007, G2019S). Put plainly: LRRK2 Km ATP LanthaScreen Assay. The class given is biochemical. Particulars: Examples N1-N25. The protocol:
Unless otherwise noted, all LRRK2 IC50 data presented in tables refers to the LRRK2 Km ATP LanthaScreen™ Assay that is described in the Biological Assay section.
The data presented for the 5 mM and Km ATP LanthaScreen™ Assay represents mean IC50 values based on several test results and may have reasonable. deviations depending on the specific conditions and reagents used. Reagents for the LRRK2 5 mM and Km ATP LanthaScreen™ Assay were purchased from Life Technologies Corporation.
LRRK2 Km ATP LanthaScreen™ Assay
a) 400 nl of a 1:2.15 serial dilution of test compound(98 μM top assay concentration) is spotted via Labcyte Echo to certain wells in a 384 well black, untreated plate. Control wells contain 400 nl of either DMSO or 400 nl of a known inhibitor in DMSO.
b) 10 μl of a 2.5 nM LRRK2(G2019S mutation, GST-LRRK2(amino acids 970-2527)) enzyme solution in 1× assay buffer(50 mM Tris pH 8.5, 10 mM MgCl2, 0.01% Brij-35, 1 mM EGTA, 2 mM DTT, 0.05 mM NaVO4) is added to all wells.
c) A 30 minute room temperature incubation is followed by addition of 10 μl of 800 nM fluorescein labeled LRRKtide peptide substrate and 184 μM ATP solution in 1× assay buffer to all wells.
d) After a 60 minute room temperature incubation, 20 μl of TR-FRET Dilution Buffer(Invitrogen PV3756B) containing 4 nM Tb-labeled anti-phospho LRRKtide antibody and 20 mM EDTA is added to all wells.
e) Plates are incubated at room temperature for 1 hour and read on an Envision™ multi-mode plate reader with LanthaScreen™ settings. Results are analysed using Assay Data Analyzer.
On the technique in general: In TR-FRET formats the signal depends on donor and acceptor labels being close together.
LRRK2(G2019S mutation, GST-LRRK2(amino acids 970-2527)), sequence (Q5S007 970-2527 G2019S): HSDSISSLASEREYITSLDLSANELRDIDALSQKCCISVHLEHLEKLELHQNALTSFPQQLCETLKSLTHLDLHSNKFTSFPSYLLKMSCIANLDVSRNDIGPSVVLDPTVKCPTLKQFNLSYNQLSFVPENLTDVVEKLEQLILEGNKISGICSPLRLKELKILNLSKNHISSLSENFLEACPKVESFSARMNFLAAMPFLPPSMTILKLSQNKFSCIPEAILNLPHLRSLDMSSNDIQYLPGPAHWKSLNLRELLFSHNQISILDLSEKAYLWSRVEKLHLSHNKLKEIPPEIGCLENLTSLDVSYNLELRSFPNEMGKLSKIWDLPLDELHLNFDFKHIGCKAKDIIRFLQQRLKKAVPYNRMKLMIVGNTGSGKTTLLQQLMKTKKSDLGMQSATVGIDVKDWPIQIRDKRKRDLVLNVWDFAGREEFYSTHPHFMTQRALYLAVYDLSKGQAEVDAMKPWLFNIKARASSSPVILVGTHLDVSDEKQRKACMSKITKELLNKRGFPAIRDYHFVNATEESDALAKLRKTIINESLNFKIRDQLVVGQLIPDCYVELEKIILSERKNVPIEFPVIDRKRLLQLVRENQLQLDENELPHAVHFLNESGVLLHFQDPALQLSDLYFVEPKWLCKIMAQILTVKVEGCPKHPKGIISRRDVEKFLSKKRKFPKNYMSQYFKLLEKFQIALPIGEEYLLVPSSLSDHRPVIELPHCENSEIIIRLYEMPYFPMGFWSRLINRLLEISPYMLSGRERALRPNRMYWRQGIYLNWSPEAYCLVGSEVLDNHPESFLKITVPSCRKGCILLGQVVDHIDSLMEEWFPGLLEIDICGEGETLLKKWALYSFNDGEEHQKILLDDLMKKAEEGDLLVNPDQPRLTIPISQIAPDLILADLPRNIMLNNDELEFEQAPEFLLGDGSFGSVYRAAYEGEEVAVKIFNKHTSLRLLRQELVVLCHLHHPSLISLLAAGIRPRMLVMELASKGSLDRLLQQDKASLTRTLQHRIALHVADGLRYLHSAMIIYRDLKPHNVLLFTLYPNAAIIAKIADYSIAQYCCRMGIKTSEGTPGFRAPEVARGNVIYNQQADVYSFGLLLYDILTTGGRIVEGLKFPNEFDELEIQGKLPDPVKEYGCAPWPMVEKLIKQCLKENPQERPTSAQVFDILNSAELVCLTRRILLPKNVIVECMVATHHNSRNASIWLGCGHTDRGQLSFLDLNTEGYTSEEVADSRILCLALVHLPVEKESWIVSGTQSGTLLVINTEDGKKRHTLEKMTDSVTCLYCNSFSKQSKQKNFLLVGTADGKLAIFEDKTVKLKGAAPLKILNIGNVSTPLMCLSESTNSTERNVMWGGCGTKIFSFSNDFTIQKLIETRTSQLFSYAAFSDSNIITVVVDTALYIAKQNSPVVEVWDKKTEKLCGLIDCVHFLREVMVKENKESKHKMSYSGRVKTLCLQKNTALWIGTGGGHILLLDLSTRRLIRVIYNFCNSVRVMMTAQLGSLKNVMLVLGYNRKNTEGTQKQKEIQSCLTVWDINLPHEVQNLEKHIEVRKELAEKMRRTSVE
A word on the IC50: it is the concentration needed to halve the response being measured. Consider `CC(C)Oc1cc2c(-c3cc(N4CCN(C5CCS(=O)(=O)C5)CC4)ncn3)n[nH]c2cc1F` (stereo not drawn) [Example N4], for which inhibition was half-maximal at 2.5 nM (IC50).

In turn, `CCOC(=O)N1CCN(c2cc(-c3n[nH]c4cc(F)c(OC(C)C)cc34)ncn2)CC1` [Example N21] returned an IC50 of 6.1 nM.

Consider `CC(C)Oc1cc2c(-c3cc(N4CCC(F)(F)C4)ncn3)n[nH]c2cc1F` [Example N8], for which the IC50 stood at 6.1 nM.

Consider `CC(C)Oc1cc2c(-c3cc(N4CC[C@@H](CO)C4)ncn3)n[nH]c2cc1F` [Example N7], for which the IC50 came out at 2.9 nM.

In the case of `CC(C)Oc1cc2c(-c3cc(N4CCC(n5cccn5)C4)ncn3)n[nH]c2cc1F` (stereo not drawn) [Example N13], inhibition was half-maximal at 6.1 nM (IC50).

Still in this test, the particulars now being: Examples O1-O23.
`COC[C@H](C)Oc1ccc2[nH]nc(-c3cc(N4CC(OC)C4)ncn3)c2c1` [Example O10] showed an IC50 of 5.6 nM.

Regarding `COC[C@H](C)Oc1ccc2[nH]nc(-c3cc(N4CC[C@@H](CF)C4)ncn3)c2c1` [Example O3], the IC50 worked out at 2.7 nM.

Take `COC[C@H](C)Oc1ccc2[nH]nc(-c3cc(N4CCOC(C)(C)C4)ncn3)c2c1` [Example O18]: the IC50 was 5.3 nM.

`COC[C@H](C)Oc1ccc2[nH]nc(-c3cc(N4CC(F)(F)C4)ncn3)c2c1` [Example O14]: the IC50 came out at 7.6 nM.

`COC[C@H](C)Oc1ccc2[nH]nc(-c3cc(N4CCc5oc(C)nc5C4)ncn3)c2c1` [Example O17] came in with an IC50 of 8.4 nM.

The same test, now with this note: Examples P1-P18.
`Cn1nccc1-c1ccc2[nH]nc(-c3cc(N4CCOCC4)ncn3)c2c1` [Example P13] came in with an IC50 of 45.7 nM.

On to `c1cc(-c2ccc3[nH]nc(-c4cc(N5CCOCC5)ncn4)c3c2)ccn1` [Example P3], for which the IC50 came out at 96.7 nM.

In turn, `COc1ncccc1-c1ccc2[nH]nc(-c3cc(N4CCOCC4)ncn3)c2c1` [Example P14] registered a half-inhibitory concentration (IC50) of 37.7 nM.

For the compound `Cc1noc(C)c1-c1ccc2[nH]nc(-c3cc(N4CCOCC4)ncn3)c2c1` [Example P4], the midpoint of inhibition, the IC50, lay at 48.7 nM.

The test is the same for the next values; noted with them: Examples Q1-Q20.
`Cc1nocc1-c1ccc2[nH]nc(-c3cc(N4C[C@@H](C)O[C@@H](C)C4)ncn3)c2c1` [Example Q5] had an IC50 of 40 nM.

With `C[C@@H]1CN(c2cc(-c3n[nH]c4ccc(-c5ccncc5)cc34)ncn2)C[C@H](C)O1` [Example Q6], the IC50 was found to be 49.5 nM.

`C[C@@H]1CN(c2cc(-c3n[nH]c4ccc(-c5ccc(C(=O)NCCO)cc5)cc34)ncn2)C[C@H](C)O1` [Example Q17]: the IC50 was 77 nM.

For `COCCn1cc(-c2ccc3[nH]nc(-c4cc(N5C[C@@H](C)O[C@@H](C)C5)ncn4)c3c2)cn1` [Example Q14], inhibition was half-maximal at 1.8 nM (IC50).

On to `CCN(CC)C(=O)c1ccc(-c2ccc3[nH]nc(-c4cc(N5C[C@@H](C)O[C@@H](C)C5)ncn4)c3c2)cc1` [Example Q20], for which the IC50 amounted to 847 nM.

The test is the same for the next values; noted with them: Km ATP (184 μM ATP solution), G2019S LRRK2, mean IC50.
`Cn1cc(-c2ccc3[nH]nc(-c4cc(N5CCS(=O)(=O)CC5)ncn4)c3c2)cn1` [Example M18] had an IC50 of 22.4 nM.

As for `CC(C)Oc1ccc2[nH]nc(-c3cc(N4CCN(C(C)C)CC4)ncn3)c2c1` [Example D17], the IC50 is 7.68 nM.

`CC(C)Oc1ccc2[nH]nc(-c3cc(N4CCC5(CCCO5)CC4)ncn3)c2c1` [Example D49] gave an IC50 of 4.13 nM.

The compound `Cc1noc(C2CN(c3cc(-c4n[nH]c5ccc(OC(C)C)cc45)ncn3)C2)n1` [Example J22] showed an IC50 of 9.3 nM.

In the case of `COC[C@H](C)Oc1ccc2[nH]nc(-c3cc(N4CCC5(CCNC5=O)CC4)ncn3)c2c1` [Example H16], half-maximal inhibition (IC50) was put at 2.83 nM.

`Cn1cc(-c2ccc3[nH]nc(-c4cc(N5CCNC(=O)C5)ncn4)c3c2)cn1` [Example A14] returned an IC50 of 2.84 nM.

`Cn1cc(-c2ccc3[nH]nc(-c4cc(N5CCC(F)(C#N)CC5)ncn4)c3c2)cn1` [Example M27] came in with an IC50 of 3 nM.

The compound `CC(=O)N1CCN(c2cc(-c3n[nH]c4ccc(-c5cnn(C)c5)cc34)ncn2)CC1` [Example A13] displayed an IC50 of 3.15 nM.

For the compound `CC(C)Oc1ccc2[nH]nc(-c3cc(N4CCN(CCF)C(=O)C4)ncn3)c2c1` [Example D33], inhibition was half-maximal at 3.3 nM (IC50).

Compound `CN1CCN(c2cc(-c3n[nH]c4cc(F)c(-c5cnn(C)c5)cc34)ncn2)CC1=O` [Example L9] returned an IC50 of 37.7 nM.

Consider `CC(C)Oc1ccc2[nH]nc(-c3cc(N4CCC(F)(F)CC4)ncn3)c2c1` [Example D5], for which 14.8 nM corresponded to half-maximal inhibition (IC50).

For the compound `CC(C)Oc1ccc2[nH]nc(-c3cc(N4CCCC(C(C)(C)O)C4)ncn3)c2c1` (stereo not drawn) [Example K13], it took 6.9 nM to reach half-maximal inhibition (IC50).

Compound `CC(C)Oc1ccc2[nH]nc(-c3cc(N4CCc5oc(C6CC6)nc5C4)ncn3)c2c1` [Example J14] had an IC50 of 30.1 nM.

For the compound `CC(C)Oc1ccc2[nH]nc(-c3cc(N4CCN(S(=O)(=O)C5CC5)CC4)ncn3)c2c1` [Example D23], inhibition was half-maximal at 5.51 nM (IC50).

With `CO[C@H]1CN(c2cc(-c3n[nH]c4ccc(-c5cnn(C)c5)cc34)ncn2)C[C@@H]1O` [Example M23], the midpoint of inhibition, the IC50, lay at 6 nM.

In turn, `CC(C)Oc1ccc2[nH]nc(-c3cc(N4CCCCC4)ncn3)c2c1` [Example J3] gave an IC50 of 10.6 nM.

`CCCN1CCN(c2cc(-c3n[nH]c4ccc(OC(C)C)cc34)ncn2)CC1=O` [Example D34] came in with an IC50 of 4.39 nM.

`FC1(F)CCN(c2cc(-c3n[nH]c4ccc(-c5cccnc5)cc34)ncn2)CC1` [U] had an IC50 of 11.1 nM.

In the case of `Cc1nc2c(o1)CCN(c1cc(-c3n[nH]c4cc(F)c(-c5cnn(C)c5)cc34)ncn1)C2` [Example L17], the IC50 is 53.4 nM.

Take `CC(C)Oc1ccc2[nH]nc(-c3cc(N4C[C@@H]5C[C@H]4CO5)ncn3)c2c1` [Example D54]: the IC50 is 5.94 nM.

Regarding `CCOc1ccc2[nH]nc(-c3cc(N4CCN(S(C)(=O)=O)CC4)ncn3)c2c1` [Example F1], the IC50 was 15.4 nM.

`CC(C)=Cc1ccc2[nH]nc(-c3cc(N4CCN(C)C(=O)C4)ncn3)c2c1` [Example S4] registered a concentration for half-maximal inhibition (IC50) of 36.2 nM.

The compound `CC(C)Oc1ccc2[nH]nc(-c3cc(N4CCN(c5cnn(C)c5)CC4)ncn3)c2c1` [Example K17] came in with a half-inhibitory concentration (IC50) of 5.4 nM.

Turning to `Cn1cc(-c2ccc3[nH]nc(-c4cc(N5CCN(CCCO)CC5)ncn4)c3c2)cn1` [Example M25], 3 nM corresponded to half-maximal inhibition (IC50).

Regarding `Cn1cc(-c2cc3c(-c4cc(N5CCS(=O)(=O)CC5)ncn4)n[nH]c3cc2F)cn1` [Example L22], the IC50 stood at 146 nM.

Compound `Cn1cc(-c2cc3c(-c4cc(N5CCC(F)(CO)CC5)ncn4)n[nH]c3cc2F)cn1` [Example L23] displayed an IC50 of 15.3 nM.

For the compound `CC(=O)N1CCN(c2cc(-c3n[nH]c4ccc(OC(C)C)cc34)ncn2)CC1` [Example K5], half-maximal inhibition (IC50) was put at 11.2 nM.

Compound `Cn1cc(-c2ccc3[nH]nc(-c4cc(N5CC[C@@H](CF)C5)ncn4)c3c2)cn1` [Example M4] returned an IC50 of 2.3 nM.

`CO[C@H]1CN(c2cc(-c3n[nH]c4ccc(OC(C)C)cc34)ncn2)C[C@@H]1O` [Example D1] had a 50% inhibitory concentration (IC50) of 9.9 nM.

For the compound `CCN1CCN(c2cc(-c3n[nH]c4ccc(OC(C)C)cc34)ncn2)CC1=O` [Example D28], the midpoint of inhibition, the IC50, lay at 5.6 nM.

In turn, `CC(C)Oc1ccc2[nH]nc(-c3cc(N4C[C@H](O)[C@@H](N(C)C)C4)ncn3)c2c1` [Example J7] displayed an IC50 of 15.3 nM.

In the case of `CC(C)Oc1cc2c(-c3cc(N4CCN(C(C)C)C(=O)C4)ncn3)n[nH]c2cc1F` [Example D69], the IC50 was 3.09 nM.

With `CN(C)[C@H]1CCN(c2cc(-c3n[nH]c4ccc(-c5cnn(C)c5)cc34)ncn2)C1` [Example M19], inhibition was half-maximal at 4.6 nM (IC50).

Compound `CC(C)Oc1ccc2[nH]nc(-c3cc(N4CCO[C@H](C)C4)ncn3)c2c1` [Example J9] yielded an IC50 of 9.2 nM.

`Cn1cc(-c2ccc3[nH]nc(-c4cc(N5CCN(C6CC6)CC5)ncn4)c3c2)cn1` [Example A2] displayed an IC50 of 2.62 nM.

Compound `COCCOc1ccc2[nH]nc(-c3cc(N4CCN(C5CC5)CC4)ncn3)c2c1` [Example G5] showed an IC50 of 97 nM.

`CC(C)Oc1cc2c(-c3cc(N4C[C@H](O)[C@@H](N)[C@@H]4C)ncn3)n[nH]c2cc1F` [Example D61] came in with an IC50 of 11.7 nM.

In the case of `Cn1cc(-c2cc3c(-c4cc(N5CCN(CCCO)CC5)ncn4)n[nH]c3cc2F)cn1` [Example L25], the IC50 was 12.6 nM.

Still in this test, the particulars now being: Table U.
The compound `CC(C)N1CCN(c2cc(-c3n[nH]c4ccc(-c5cn[nH]c5)cc34)ncn2)CC1` [Example U24] yielded an IC50 of 0.96 nM.

`FC1(F)CCN(c2cc(-c3n[nH]c4ccc(C5=CCNCC5)cc34)ncn2)CC1` [Example U3] showed an IC50 of 120 nM.

Compound `CC(C)N1CCN(c2cc(-c3n[nH]c4ccc(-c5ccn[nH]5)cc34)ncn2)CC1` [Example U25] came in with an IC50 of 2.34 nM.

Compound `FC1(F)CCN(c2cc(-c3n[nH]c4ccc(-c5ccsc5)cc34)ncn2)CC1` [Example U2] displayed an IC50 of 348 nM.

As for `Cc1n[nH]c(C)c1-c1ccc2[nH]nc(-c3cc(N4CCOCC4)ncn3)c2c1` [Example U19], inhibition was half-maximal at 2.58 nM (IC50).

On to `COc1ccncc1-c1ccc2[nH]nc(-c3cc(N4CCOCC4)ncn3)c2c1` [Example U13], for which inhibition was half-maximal at 1.72 nM (IC50).

Source of the values: patent US9416126B2, “Compounds inhibiting leucine-rich repeat kinase enzyme activity” (Merck Sharp & Dohme Corp., priority 2013, dated 2016).
